Reference: ChEMBL document CHEMBL1159040, “Synthesis and evaluation of phenylequine for antimalarial activity in vitro and in vivo” (Bioorg Med Chem Lett, 2010)

Legend:
Plasmodium falciparum [1] = test: Antiplasmodial activity against chloroquine-resistant Plasmodium falciparum K1 infected in human O+ erythrocytes by parasite LDH assay; format: functional, organism-based
Plasmodium falciparum [2] = test: Antiplasmodial activity against chloroquine-sensitive Plasmodium falciparum D10 infected in human O+ RBC by parasite LDH assay; format: functional, organism-based
KB = test: Cytotoxicity against human KB cells; format: cell-based
Plasmodium berghei [3] = test: Antiplasmodial activity in chloroquine-sensitive Plasmodium berghei ANKA infected BALB/c mice (Mus musculus) assessed as inhibition of parasitemia at 10 mg/kg, intraperitoneally daily once for 4 days; format: functional; settings: ip, 96 h, route intraperitoneal
Plasmodium yoelii [4] = test: Antiplasmodial activity in chloroquine-nonsensitive Plasmodium yoelii infected BALB/c mice (Mus musculus) assessed as inhibition of parasitaemia at 3 mg/kg, intraperitoneally daily once for 4 days; format: functional; settings: route intraperitoneal
Plasmodium yoelii [5] = test: Antiplasmodial activity in chloroquine-nonsensitive Plasmodium yoelii infected BALB/c mice (Mus musculus) assessed as inhibition of parasitaemia at 10 mg/kg, intraperitoneally daily once for 4 days; format: functional; settings: ip, 96 h, route intraperitoneal
Plasmodium yoelii [6] = test: Antiplasmodial activity in chloroquine-nonsensitive Plasmodium yoelii infected BALB/c mice (Mus musculus) assessed as inhibition of parasitaemia at 1 mg/kg, intraperitoneally daily once for 4 days; format: functional; settings: ip, 96 h, route intraperitoneal
Plasmodium berghei [7] = test: Antiplasmodial activity in chloroquine-sensitive Plasmodium berghei ANKA infected BALB/c mice (Mus musculus) assessed as mean parasitemia at 10 mg/kg, intraperitoneally daily once for 4 days; format: functional; settings: route intraperitoneal
Plasmodium yoelii [8] = test: Antiplasmodial activity in chloroquine-nonsensitive Plasmodium yoelii infected BALB/c mice (Mus musculus) assessed as inhibition of parasitaemia at 30 mg/kg, intraperitoneally daily once for 4 days; format: functional; settings: route intraperitoneal
Plasmodium berghei [9] = test: Antiplasmodial activity in chloroquine-sensitive Plasmodium berghei ANKA infected BALB/c mice (Mus musculus) assessed as inhibition of parasitemia at 30 mg/kg, intraperitoneally daily once for 4 days; format: functional; settings: route intraperitoneal
Plasmodium berghei [10] = test: Antiplasmodial activity in chloroquine-sensitive Plasmodium berghei ANKA infected BALB/c mice (Mus musculus) assessed as mean parasitemia at 30 mg/kg, intraperitoneally daily once for 4 days; format: functional; settings: route intraperitoneal

With `CN(C)Cc1ccccc1CNc1ccnc2ccccc12` the IC50 (Plasmodium falciparum [1]) was 0.0703 µM, the IC50 (Plasmodium falciparum [2]) was 0.106 µM and the Activity (KB) was 8.5 µM.

Compound `CN(C)Cc1ccccc1CNCCNc1ccnc2cc(Cl)ccc12` has an IC50 (Plasmodium falciparum [1]) of 0.0098 µM, an IC50 (Plasmodium falciparum [2]) of 0.0195 µM and an Activity (KB) of 14 µM.

`CCN(CC)CCCC(C)Nc1ccnc2cc(Cl)ccc12.O=P(O)(O)O.O=P(O)(O)O` (stereo not drawn) [CHLOROQUINE PHOSPHATE] showed an inhibition in vivo at 10 mg/kg (Plasmodium berghei [3]) of 100%, an inhibition in vivo at 3 mg/kg (Plasmodium yoelii [4]; Plasmodium yoelii, ip, 96 h) of 32.7% and an inhibition in vivo at 10 mg/kg (Plasmodium yoelii [5]) of 98.1%. It also gave an inhibition in vivo at 1 mg/kg (Plasmodium yoelii [6]) of 32.7% and an Activity (Plasmodium berghei [7]) of 0%.

For `CN(C)Cc1ccccc1CNc1ccnc2cc(Cl)ccc12.O=C(O)CC(O)(CC(=O)O)C(=O)O` [PHENYLEQUINE DICITRATE], the “inhibition (INH)” value (Plasmodium yoelii [4]) was 8.9% and the “inhibition (INH)” value (Plasmodium yoelii [8]) was 99.6%.

For `CN(C)Cc1ccccc1CNc1ccnc2cc(Cl)ccc12.Cl.Cl` [PHENYLEQUINE DIHYDROCHLORIDE], the inhibition in vivo at 30 mg/kg (Plasmodium berghei [9]; Plasmodium berghei, ANKA, ip, 96 h) was 100%, the “inhibition (INH)” value (Plasmodium yoelii [4]) was 94.5% and the inhibition in vivo at 10 mg/kg (Plasmodium yoelii [5]) was 99.7%. The inhibition in vivo at 30 mg/kg (Plasmodium yoelii [8]; Plasmodium yoelii, ip, 96 h) was 99.5% and the Activity (Plasmodium berghei [10]) was 0%.

In the case of `CN(C)Cc1ccccc1CNc1ccnc2cc(Cl)ccc12` [PHENYLEQUINE], the “inhibition (INH)” value (Plasmodium berghei [9]) is reported as 100%, the IC50 (Plasmodium falciparum [1]) is reported as 0.0069 µM and the IC50 (Plasmodium falciparum [2]) is reported as 0.0132 µM. It also gave an Activity (Plasmodium berghei [10]) of 0% and an Activity (KB) of 70 µM.
